In patent publication US9587266B2, “Mutant luciferases” (University of Massachusetts, priority 2011, dated 2017):
Several values for one entry are separate records, joined by “and”; a condition that tells them apart may be missing. Equal values may be shown once. Read-outs that look alike come from different tables or passages of the source.

Columns and labels:
L286M mutant luciferase = target: T1, L286M mutant luciferase (Photinus pyralis, UniProt P08659, L286M); test: Titration assay with purified protein; type: biochemical
T1 construct: The full firefly (Photinus pyralis) luciferase gene was PCR amplified from pGL3 (Promega); GST (N, cleaved yes); made in house; host or cells: E. coli JM109
Experimental: (§1) The PCR product was cloned into the BamH1 and NotI sites of pGEX6P-1 for bacterial expression. Mutant proteins were created using the Quickchange site-directed mutagenesis kit (Stratagene). Saturating mutagenesis was performed using the used the degenerate codon NNK at sites predicted to impact or alter substrate biding including F247, T251, L286, S347, R337, R218, Q338, Y340, A313, and I351 using the degenerate codon NNK.
(§2) Luminescence assays in 96-well plates were initiated by adding 30 μL 2× substrate in 20 mM Tris pH 7.6, 0.1 mM EDTA, 8 mM MgSO4, 4 mM ATP, and 1 mM TCEP to 30 μL of 20 nM purified luciferase in 20 mM Tris pH 7.6, 0.1 mM EDTA, 1 mM TCEP and 0.4 mg/mL BSA.

T251S mutant luciferase = target: T2, T251S mutant luciferase (Photinus pyralis, UniProt P08659, T251S); test: Titration assay with purified protein; type: biochemical
T2 construct: The full firefly (Photinus pyralis) luciferase gene was PCR amplified from pGL3 (Promega); GST (N, cleaved yes); made in house; host or cells: E. coli JM109
Experimental: as §1, §2

R218K mutant luciferase = target: T3, R218K mutant luciferase (Photinus pyralis, UniProt P08659, R218K); type: biochemical
T3 construct: The full firefly (Photinus pyralis) luciferase gene was PCR amplified from pGL3 (Promega); GST (N, cleaved yes); made in house; host or cells: E. coli JM109
Experimental: as §1, §2

S347A mutant luciferase = target: T4, S347A mutant luciferase (Photinus pyralis, UniProt P08659, S347A); type: biochemical; settings: purified protein
T4 construct: The full firefly (Photinus pyralis) luciferase gene was PCR amplified from pGL3 (Promega); GST (N, cleaved yes); made in house; host or cells: E. coli JM109
Experimental: as §1, §2

R218K + L342A luciferase = target: T5, R218K + L342A luciferase (Photinus pyralis, UniProt P08659, L342A/R218K); type: biochemical
T5 construct: The full firefly (Photinus pyralis) luciferase gene was PCR amplified from pGL3 (Promega); GST (N, cleaved yes); made in house; host or cells: E. coli JM109
Experimental: (§3) Purified mutant luciferases were used in bioluminescence emission and burst kinetics scans. Each purified protein in 20 mM Tris pH 7.6, 0.1 mM EDTA, 1 mM TCEP and 0.4 mg/mL BSA was added to 2× substrate in 20 mM Tris pH 7.6, 0.1 mM EDTA, 8 mM MgSO4, 4 mM ATP, and 1 mM TCEP in a cuvette.
(§4) Luciferase was rapidly injected into a cuvette containing substrate, and the emission from 400-800 nm was recorded in a SPEX FluoroMax-3 fluorimeter with closed excitation slits.

WT luciferase = target: T6, WT luciferase (Photinus pyralis, UniProt P08659); type: biochemical
T6 construct: The full firefly (Photinus pyralis) luciferase gene was PCR amplified from pGL3 (Promega); GST (N, cleaved yes); made in house; host or cells: E. coli JM109
Experimental: as §3, §4

F247A luciferase = target: T7, F247A luciferase (Photinus pyralis, UniProt P08659, F247A); test: Bioluminescence emission scan; type: biochemical
T7 construct: The full firefly (Photinus pyralis) luciferase gene was PCR amplified from pGL3 (Promega); GST (N, cleaved yes); made in house; host or cells: E. coli JM109
Experimental: (§5) Purified mutant luciferases were used in bioluminescence emission and burst kinetics scans.
as §4

F247L L286M luciferase = target: T8, F247L L286M luciferase (Photinus pyralis, UniProt P08659, F247L/L286M); test: Bioluminescence emission scan; type: biochemical
T8 construct: The full firefly (Photinus pyralis) luciferase gene was PCR amplified from pGL3 (Promega); GST (N, cleaved yes); made in house; host or cells: E. coli JM109
Experimental: as §5, §4

F247R luciferase = target: T9, F247R luciferase (Photinus pyralis, UniProt P08659, F247R); test: Bioluminescence emission scan; type: biochemical
T9 construct: The full firefly (Photinus pyralis) luciferase gene was PCR amplified from pGL3 (Promega); GST (N, cleaved yes); made in house; host or cells: E. coli JM109
Experimental: as §5, §4

F247S luciferase = target: T10, F247S luciferase (Photinus pyralis, UniProt P08659, F247S); test: Bioluminescence emission scan; type: biochemical
T10 construct: The full firefly (Photinus pyralis) luciferase gene was PCR amplified from pGL3 (Promega); GST (N, cleaved yes); made in house; host or cells: E. coli JM109
Experimental: as §5, §4

F247V luciferase = target: T11, F247V luciferase (Photinus pyralis, UniProt P08659, F247V); test: Bioluminescence emission scan; type: biochemical
T11 construct: The full firefly (Photinus pyralis) luciferase gene was PCR amplified from pGL3 (Promega); GST (N, cleaved yes); made in house; host or cells: E. coli JM109
Experimental: as §5, §4

I351A luciferase = target: T12, I351A luciferase (Photinus pyralis, UniProt P08659, I351A); test: Bioluminescence emission scan; type: biochemical
T12 construct: The full firefly (Photinus pyralis) luciferase gene was PCR amplified from pGL3 (Promega); GST (N, cleaved yes); made in house; host or cells: E. coli JM109
Experimental: as §5, §4

L286M + S347A luciferase = target: T13, L286M + S347A luciferase (Photinus pyralis, UniProt P08659, L286M/S347A); test: Bioluminescence emission scan; type: biochemical
T13 construct: The full firefly (Photinus pyralis) luciferase gene was PCR amplified from pGL3 (Promega); GST (N, cleaved yes); made in house; host or cells: E. coli JM109
Experimental: as §5, §4

L286Y luciferase = target: T14, L286Y luciferase (Photinus pyralis, UniProt P08659, L286Y); test: Bioluminescence emission scan; type: biochemical
T14 construct: The full firefly (Photinus pyralis) luciferase gene was PCR amplified from pGL3 (Promega); GST (N, cleaved yes); made in house; host or cells: E. coli JM109
Experimental: as §5, §4

L342A luciferase = target: T15, L342A luciferase (Photinus pyralis, UniProt P08659, L342A); test: Bioluminescence emission scan; type: biochemical
T15 construct: The full firefly (Photinus pyralis) luciferase gene was PCR amplified from pGL3 (Promega); GST (N, cleaved yes); made in house; host or cells: E. coli JM109
Experimental: as §5, §4

R218K luciferase = target: T16, R218K luciferase (Photinus pyralis, UniProt P08659, R218K); test: Bioluminescence emission scan; type: biochemical
T16 construct: The full firefly (Photinus pyralis) luciferase gene was PCR amplified from pGL3 (Promega); GST (N, cleaved yes); made in house; host or cells: E. coli JM109
Experimental: as §5, §4

S347A luciferase = target: T17, S347A luciferase (Photinus pyralis, UniProt P08659, S347A); test: Bioluminescence emission scan; type: biochemical
T17 construct: The full firefly (Photinus pyralis) luciferase gene was PCR amplified from pGL3 (Promega); GST (N, cleaved yes); made in house; host or cells: E. coli JM109
Experimental: as §5, §4

S347T luciferase = target: T18, S347T luciferase (Photinus pyralis, UniProt P08659, S347T); test: Bioluminescence emission scan; type: biochemical
T18 construct: The full firefly (Photinus pyralis) luciferase gene was PCR amplified from pGL3 (Promega); GST (N, cleaved yes); made in house; host or cells: E. coli JM109
Experimental: as §5, §4

T251N luciferase = target: T19, T251N luciferase (Photinus pyralis, UniProt P08659, T251N); test: Bioluminescence emission scan; type: biochemical
T19 construct: The full firefly (Photinus pyralis) luciferase gene was PCR amplified from pGL3 (Promega); GST (N, cleaved yes); made in house; host or cells: E. coli JM109
Experimental: as §5, §4

T251Q luciferase = target: T20, T251Q luciferase (Photinus pyralis, UniProt P08659, T251Q); test: Bioluminescence emission scan; type: biochemical
T20 construct: The full firefly (Photinus pyralis) luciferase gene was PCR amplified from pGL3 (Promega); GST (N, cleaved yes); made in house; host or cells: E. coli JM109
Experimental: as §5, §4

T251S L286M luciferase = target: T21, T251S L286M luciferase (Photinus pyralis, UniProt P08659, L286M/T251S); test: Bioluminescence emission scan; type: biochemical
T21 construct: The full firefly (Photinus pyralis) luciferase gene was PCR amplified from pGL3 (Promega); GST (N, cleaved yes); made in house; host or cells: E. coli JM109
Experimental: as §5, §4

T251S luciferase = target: T22, T251S luciferase (Photinus pyralis, UniProt P08659, T251S); test: Bioluminescence emission scan; type: biochemical
T22 construct: The full firefly (Photinus pyralis) luciferase gene was PCR amplified from pGL3 (Promega); GST (N, cleaved yes); made in house; host or cells: E. coli JM109
Experimental: as §5, §4

[1] = target: T23, R218K mutant luciferase in live CHO cells (Photinus pyralis, UniProt P08659, R218K); test: Intact cell assay, transfected CHO cells; type: cell-based
T23 construct: The full firefly (Photinus pyralis) luciferase gene was PCR amplified from pGL3 (Promega); expressed in transfected cells; host or cells: CHO cells
Experimental: (§6) The mutants were cloned into the BamHI-Not I site of pcDNA 3.1 and transfected into CHO cells for live and lysed cell experiments. CHO-cell transfections were performed using Lipofectamine 2000 in 96-well white tissue culture treated plates (Costar) for intact cell assays, or 6-well plates for lysed cell assays. For intact cells, 0.075 μg DNA/well was transfected. For lysed cells, 2.25 μg DNA/well was transfected and one full 6-well plate was transfected for each mutant. Assays were performed in triplicate 24 hours post-transfection.
(§7) Transfected CHO cells were washed with HBSS and overlaid with 60 μL substrate in HBSS.

[2] = target: T24, T251S mutant luciferase in live CHO cells (Photinus pyralis, UniProt P08659, T251S); test: Intact cell assay, transfected CHO cells; type: cell-based
T24 construct: The full firefly (Photinus pyralis) luciferase gene was PCR amplified from pGL3 (Promega); expressed in transfected cells; host or cells: CHO cells
Experimental: as §6, §7

[3] = 3 minutes post-substrate addition, read-out: Apparent Km

T3 sequence (P08659 whole entry R218K): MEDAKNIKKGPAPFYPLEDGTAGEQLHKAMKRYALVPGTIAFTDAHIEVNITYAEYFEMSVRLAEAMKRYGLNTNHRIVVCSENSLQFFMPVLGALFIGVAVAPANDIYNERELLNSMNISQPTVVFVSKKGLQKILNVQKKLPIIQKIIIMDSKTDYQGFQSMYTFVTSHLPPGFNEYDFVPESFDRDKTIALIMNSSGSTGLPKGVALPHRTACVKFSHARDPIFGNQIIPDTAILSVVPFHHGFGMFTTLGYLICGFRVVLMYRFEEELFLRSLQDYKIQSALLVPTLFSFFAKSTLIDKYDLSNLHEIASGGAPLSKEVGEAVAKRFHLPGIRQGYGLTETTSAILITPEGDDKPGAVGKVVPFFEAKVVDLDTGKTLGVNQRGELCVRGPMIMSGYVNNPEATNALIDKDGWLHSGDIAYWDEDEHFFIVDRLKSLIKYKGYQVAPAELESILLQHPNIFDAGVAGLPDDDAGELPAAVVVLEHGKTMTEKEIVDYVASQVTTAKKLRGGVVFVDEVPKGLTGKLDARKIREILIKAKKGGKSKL
T4 sequence (P08659 whole entry S347A): as the sequence (P08659 whole entry R218K) above, with K218R, S347A counted along it
T16 sequence (P08659 whole entry R218K): as the sequence (P08659 whole entry R218K) above
T2 sequence (P08659 whole entry T251S): as the sequence (P08659 whole entry R218K) above, with K218R, T251S counted along it
T6 sequence (P08659 whole entry): as the sequence (P08659 whole entry R218K) above, with K218R counted along it
T1 sequence (P08659 whole entry L286M): as the sequence (P08659 whole entry R218K) above, with K218R, L286M counted along it
T21 sequence (P08659 whole entry T251S/L286M): as the sequence (P08659 whole entry R218K) above, with K218R, T251S, L286M counted along it
T10 sequence (P08659 whole entry F247S): as the sequence (P08659 whole entry R218K) above, with K218R, F247S counted along it
T18 sequence (P08659 whole entry S347T): as the sequence (P08659 whole entry R218K) above, with K218R, S347T counted along it
T17 sequence (P08659 whole entry S347A): as the sequence (P08659 whole entry R218K) above, with K218R, S347A counted along it
T23 sequence (P08659 whole entry R218K): as the sequence (P08659 whole entry R218K) above
T14 sequence (P08659 whole entry L286Y): as the sequence (P08659 whole entry R218K) above, with K218R, L286Y counted along it
T13 sequence (P08659 whole entry L286M/S347A): as the sequence (P08659 whole entry R218K) above, with K218R, L286M, S347A counted along it
T7 sequence (P08659 whole entry F247A): as the sequence (P08659 whole entry R218K) above, with K218R, F247A counted along it
T12 sequence (P08659 whole entry I351A): as the sequence (P08659 whole entry R218K) above, with K218R, I351A counted along it
T15 sequence (P08659 whole entry L342A): as the sequence (P08659 whole entry R218K) above, with K218R, L342A counted along it
T5 sequence (P08659 whole entry R218K/L342A): as the sequence (P08659 whole entry R218K) above, with L342A counted along it
T24 sequence (P08659 whole entry T251S): as the sequence (P08659 whole entry R218K) above, with K218R, T251S counted along it
T22 sequence (P08659 whole entry T251S): as the sequence (P08659 whole entry R218K) above, with K218R, T251S counted along it
T8 sequence (P08659 whole entry F247L/L286M): as the sequence (P08659 whole entry R218K) above, with K218R, F247L, L286M counted along it
T9 sequence (P08659 whole entry F247R): as the sequence (P08659 whole entry R218K) above, with K218R, F247R counted along it
T19 sequence (P08659 whole entry T251N): as the sequence (P08659 whole entry R218K) above, with K218R, T251N counted along it
T20 sequence (P08659 whole entry T251Q): as the sequence (P08659 whole entry R218K) above, with K218R, T251Q counted along it
T11 sequence (P08659 whole entry F247V): as the sequence (P08659 whole entry R218K) above, with K218R, F247V counted along it

O=C(O)[C@H]1CSC(c2nc3cc4c(cc3s2)NCC4)=N1 [CycLuc1]
Apparent Vmax (L286M mutant luciferase): 60 ± 0.7 ×10^−5 cps
Km (L286M mutant luciferase; [3]): 0.46 ± 0.03 µM
Apparent Vmax (T251S mutant luciferase): 90 ± 0.9 ×10^−5 cps
Km (T251S mutant luciferase; [3]): 1.83 ± 0.09 µM
Apparent Vmax (R218K mutant luciferase; R218K luciferase, purified protein): 134 ± 1.9 ×10^−5 cps
Km (R218K mutant luciferase; R218K luciferase, purified protein, 3 minutes post-substrate addition, read-out: Apparent Km): 1.8 µM and 1.79 µM
maximal sustained light emission as % of that of D-luciferin with WT luciferase (R218K mutant luciferase; R218K mutant): 12.5%
improvement in the maximal sustained emission (R218K mutant luciferase; R218K mutant relative to wild-type luciferase): 14 fold
Apparent Vmax (S347A mutant luciferase): 135 ± 0.8 ×10^−5 cps
Km (S347A mutant luciferase; [3]): 2.68 ± 0.07 µM
Maximum Emission Wavelength of Selected Substrate (R218K + L342A luciferase): 604 nm
Wavelength at Max. Emission (WT luciferase; Table 2): 601 nm
Maximum Emission Wavelength of Selected Substrate (WT luciferase; Table 3): 601 nm
Wavelength at Max. Emission (F247A luciferase): 605 nm
Wavelength at Max. Emission (F247L L286M luciferase): 603 nm
Wavelength at Max. Emission (F247R luciferase): 609 nm
Wavelength at Max. Emission (F247S luciferase): 607 nm
Wavelength at Max. Emission (F247V luciferase): 603 nm
Wavelength at Max. Emission (I351A luciferase): 604 nm
Maximum Emission Wavelength of Selected Substrate (L286M + S347A luciferase): 595 nm
Wavelength at Max. Emission (L286Y luciferase): 604 nm
Maximum Emission Wavelength of Selected Substrate (L342A luciferase): 597 nm
Maximum Emission Wavelength of Selected Substrate (R218K luciferase): 609 nm
Maximum Emission Wavelength of Selected Substrate (R218K luciferase; listed as Cyc1): 605 nm
Wavelength at Max. Emission (S347A luciferase): 597 nm
Wavelength at Max. Emission (S347T luciferase): 601 nm
Wavelength at Max. Emission (T251N luciferase): 604 nm
Wavelength at Max. Emission (T251Q luciferase): 612 nm
Wavelength at Max. Emission (T251S L286M luciferase): 601 nm
Wavelength at Max. Emission (T251S luciferase): 602 nm
substrate concentrations at which light output was superior to D-luciferin [1]: < 30 µM
substrate concentrations at which light output was superior to D-luciferin [2]: < 30 µM
